Reference: patent US12466814B2, “Sterically shielded heptamethine cyanine dyes” (UNIVERSITY OF NOTRE DAME DU LAC, priority 2020, dated 2025)
“And” between values parts separate entries of the source, which are not always exact repeats. Equal values may be shown once. Marks after values point to notes of the source that are not given here.

Legend:
[1] = Water solubility and storage of aqueous stock solutions; type: physicochemical; conditions: 1 mM in water
[2] = biological target: T1, bovine serum albumin (BSA) (Bos taurus, UniProt P02769); assay: Albumin binding, dye fluorescence with and without BSA; conditions: PBS, presence and absence of BSA (2 μM)
T1 construct: a solution of bovine serum albumin (BSA, 2 μM) at 37° C; purchased

[3] = Absorption and emission spectral properties of dyes; type: physicochemical; conditions: for λabs max: monomer (m) band where an aggregate band is also listed
Method: General. Reagents and solvents were purchased from Sigma-Aldrich, VWR, Oakwood, Thermo Fisher and TCI and used without further purification unless stated otherwise. Anhydrous tetrahydrofuran was distilled with metal sodium and benzophenone. Column chromatography was performed using Biotage SNAP Ultra columns. ^1H, ^13C and ROESY NMR spectra were recorded on a Bruker 500 NMR spectrometer. Chemical shifts are presented in ppm and referenced by residual solvent peak. High-resolution mass spectrometry (HRMS) was performed using a time-of-flight (TOF) analyzer with electrospray ionization (ESI). Absorption spectra were recorded on an Evolution 201 UV/vis spectrometer with Thermo Insight software. Fluorescence spectra were collected on a Horiba Fluoromax-4 fluorometer with FluoroEssence software. Analyte solutions were prepared in HPLC grade water (Sigma-Aldrich), phosphate buffered saline (Thermo Fisher), fetal bovine serum (Sigma-Aldrich) or buffer B (575 mM NaCl, 37.5 mM NaH2PO4 and 0.75 mM EDTA in water, pH 7.5). All absorption and fluorescence spectra were collected using quartz cuvettes (1 mL, 1 cm path length; for emission and excitation spectra, slit width=3 nm).

[4] = Photostability, Xenon lamp irradiation; type: physicochemical
Method: FIG. 2. Two separate photostability studies. (a) Lamp irradiation: Four separate cuvettes, each containing 1 μM dye in PBS buffer, pH 7.4, were irradiated by a 150 W Xenon lamp with a 620 nm long-pass filter. The plot of normalized dye absorbance versus time was fit to a one-phase exponential decay. […] The length scale bar on each NIR fluorescence image is 1 cm.
Photostability Measurements. Lamp Irradiation: A solution of dye (1 μM) in PBS buffer, pH 7.4, was placed in a 1×1×4 cm^3 cuvette that was exposed to air and irradiated at a distance of 3 cm by a 150 W Xenon lamp with a 620 nm long-pass filter. An absorbance spectrum was recorded every 10 min. The normalized maximum absorbance of dye was plotted against time and fitted to a non-linear regression, one-phase exponential decay. […] A 1.5 mL vial containing the solution was irradiated at a distance of 3 cm by a 150 W Xenon lamp with a 620 nm long-pass filter.

[5] = Quantum yield and fluorescence brightness relative to UL766; type: physicochemical
Source text: The fluorescence spectrum of each solution was obtained with excitation at 730 nm, and the integrated area was used in the quantum yield calculation by the following equation:
[formula] where η is the refractive index of the solvent, I is the integrated fluorescence intensity, and A is the absorbance at a chosen wavelength. […]

[6] = Dye self-aggregation by absorption/excitation spectra; type: physicochemical; conditions: in water / aqueous media, absorption spectra
[7] = meso linkage is not cleaved by biological amines or thiols; cited from earlier work
[8] = Antibody conjugate absorbance and fluorescence; type: physicochemical; conditions: value used in degree of labeling calculation
Method: Antibody Conjugate Absorbance. Absorbance spectra of goat IgG antibody bioconjugates were collected in buffer B (575 mM NaCl, 37.5 mM NaH2PO4 and 0.75 mM EDTA in water, pH 7.5) using Implen NanoPhotometer NP80. Spectra were normalized to absorbance at 280 nm.
Antibody Conjugate Fluorescence. […] The fluorescence emission spectra were divided by the fluorescence emission intensity at 355 nm (ex: 280 nm, slit width: 2 nm) to obtain corrected spectra that accounts for variations in antibody concentration.

[9] = biological target: T1, bovine serum albumin (BSA); assay: Albumin binding, quenching of BSA tryptophan fluorescence
Method: FIG. 13. […] The relative fluorescence intensity at 335 nm was determined using the following equation, where F0 is the initial fluorescence intensity, F is the fluorescence intensity after each aliquot addition of dye, and the slope of the trend line (m) corresponds to Ka±SD.
Albumin Binding Measurements. Two separate sets of titration experiments were performed. The first set of titration experiments measured quenching of bovine serum albumin (BSA) tryptophan fluorescence as dye was added incrementally. […] After each aliquot addition, the solution was mixed and allowed to equilibrate for 5 min before spectral acquisition.

T1 sequence (P02769 25-607): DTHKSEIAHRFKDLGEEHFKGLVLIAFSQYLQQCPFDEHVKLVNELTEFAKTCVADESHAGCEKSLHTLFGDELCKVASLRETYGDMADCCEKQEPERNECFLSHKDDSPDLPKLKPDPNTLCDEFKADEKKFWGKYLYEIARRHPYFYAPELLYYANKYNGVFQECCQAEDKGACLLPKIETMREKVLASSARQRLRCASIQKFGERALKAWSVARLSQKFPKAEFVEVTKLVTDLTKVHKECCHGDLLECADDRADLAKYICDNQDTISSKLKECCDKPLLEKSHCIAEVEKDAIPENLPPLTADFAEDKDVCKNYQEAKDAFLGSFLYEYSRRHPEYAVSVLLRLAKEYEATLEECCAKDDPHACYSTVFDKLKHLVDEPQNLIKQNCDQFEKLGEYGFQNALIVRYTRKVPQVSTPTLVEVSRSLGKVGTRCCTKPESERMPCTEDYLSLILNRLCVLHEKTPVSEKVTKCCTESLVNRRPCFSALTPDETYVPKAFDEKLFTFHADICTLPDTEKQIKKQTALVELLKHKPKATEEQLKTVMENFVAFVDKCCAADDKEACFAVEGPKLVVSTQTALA

- Storage of 1 mM stock solution in water [1]: forms a precipitate after 24 hr
- Effect of BSA on dye fluorescence [2]: no effect on the dye fluorescence
- SS (Stokes shift) ([3]; 2 μM BSA in pH 7.4 PBS): 18 nm
- ε ([3]; 2 μM BSA in pH 7.4 PBS): 107,000 M^−1cm^−1
- λabs max, aggregate (a) band ([3]; 2 μM BSA in pH 7.4 PBS): 681 (a)/ nm
- λem max ([3]; 2 μM BSA in pH 7.4 PBS): 773 nm
- λabs max ([3]; 2 μM BSA in pH 7.4 PBS): 755 (m) nm
- SS (Stokes shift) ([3]; 100% FBS): 16 nm
- ε ([3]; 100% FBS): 118,000 M^−1cm^−1
- λabs max, aggregate (a) band ([3]; 100% FBS): 682 (a)/ nm
- λem max ([3]; 100% FBS): 774 nm
- λabs max ([3]; 100% FBS): 758 (m) nm
- SS (Stokes shift) ([3]; H2O): 17 nm
- ε ([3]; H2O): 56,000 M^−1cm^−1
- λabs max, aggregate (a) band ([3]; H2O): 681 (a)/ nm
- λem max ([3]; H2O): 773 nm
- λabs max ([3]; H2O): 756 (m) nm
- SS (Stokes shift) ([3]; PBS pH 7.4): 17 nm
- λabs max, aggregate (a) band ([3]; PBS pH 7.4, room temperature): 681 (a)^[f] nm and 681 (a)/ nm
- λem max ([3]; PBS pH 7.4, room temperature): 773 nm
- λabs max ([3]; PBS pH 7.4, room temperature): 756 (m)^[f] nm and 756 (m) nm
- k, rate constant of first-order decay ([4]; pH 7.4 PBS, 150 W Xenon lamp irradiation, 620 nm long-pass filter, 23° C., 1 μM dye): 0.00037 s⁻¹
- Order of photostabilities ([4]; separate cuvettes, dye in PBS, Xenon lamp >620 nm): s775z>756z>UL766>ICG
- Brightness (fluorescence brightness = ε × QY) ([5]; PBS pH 7.4, error ±15%): 9,600
- QY ([5]; PBS pH 7.4, relative to UL766, error ±10%): 0.097
- Quantum yield ([5]; pH 7.4 PBS, relative to UL766, error ±10%): 9.7^[b] %
- ϵmax for the monomer peak [8]: 111,000 M^−1 cm^−1
- Ka relative to Ka for BSA association with ICG [9]: about 40 times lower
- Ka for BSA ([9]; BSA 2 μM, 37° C., tryptophan fluorescence quenching): 16000 M⁻¹
- Dye/BSA affinity ([9]; tryptophan quenching titration): weak dye/BSA affinity
Structure (SMILES): CC1(C)C(/C=C/C2=C(c3ccc(C(=O)O)cc3)C(=C/C=C3/N(CCC[N+](C)(C)C)c4ccc(S(=O)(=O)O)cc4C3(C)C)/CCC2)=[N+](CCC[N+](C)(C)C)c2ccc(S(=O)(=O)O)cc21 [Dye 756z]
- ε ([3]; PBS pH 7.4, room temperature, monomer band): 99,000 (0.942)^[b] M^−1cm^−1 and 99,000 M^−1cm^−1
- Aggregation state [6]: exists largely as non-fluorescent H-aggregates
- Stable to nucleophiles [7]: Yes
